According to article PMC10485906, “Development of a Dihydroquinoline–Pyrazoline GluN2C/2D-Selective Negative Allosteric Modulator of the N-Methyl-D-aspartate Receptor” (ACS Chemical Neuroscience, 2023):
“And” between values parts separate entries of the source, which are not always exact repeats. Equal entries are not always repeated. Where two headings read alike, the source gives them in different places.

Key:
[1] = Mouse plasma and brain pharmacokinetics, IV administration; type: in vivo; settings: 5 mg/kg IV; for concentration at 0.25 h / concentration at 1 h / concentration at 3 h: male, C57BL/6, mouse, intravenous, 5 mg/kg
Method: IACUC-approved protocols and animal welfare regulations outlined in the “Guide for the Care and Use of Laboratory Animals” were both followed during the pharmacokinetic evaluation of all compounds. In vivo analysis was performed by Pharmaron (IP administration, Irvine, CA) and Sai Life (IV administration, Hinjewadi Pune, Pune, India).
Nine male C57BL/6 mice were administered intravenously (IV) with solution formulation of prodrug at 5 mg/kg dose (5 mL/kg) in 5% […], 5% Solutol HS-15, and 90% saline. Blood samples (∼60 μL) were collected under light isoflurane anesthesia from a set of three mice at 0.25, 1, and 3 h. Plasma was harvested by centrifugation of blood and stored at −70 ± 10 °C until analysis. Immediately after the collection of blood, brain samples were collected from each mouse at respective time points. Brain samples were homogenized using ice-cold phosphate-buffered saline (pH 7.4), and homogenates were stored below −70 ± 10 °C until analysis. The total homogenate volume was 3 times that of the brain weight. The plasma and brain concentration–time data of compounds 2i were used for the pharmacokinetic analysis. Plasma and brain samples were quantified by the fit-for-purpose LC-MS/MS method (LLOQ: 2.06 ng/mL for plasma and 5.16 ng/mL for brain).

[2] = target: GluN1/GluN2C (Rattus norvegicus, UniProt P35439+Q00961); assay: Whole-cell voltage-clamp recordings, HEK cells, GluN1/GluN2C (agonist dependence); type: cell-based; settings: for IC50: inhibitor and glycine preapplied
Sequence of GluN1/GluN2C (Rattus norvegicus, UniProt P35439+Q00961) (Q00961 20-1237, other chains not shown): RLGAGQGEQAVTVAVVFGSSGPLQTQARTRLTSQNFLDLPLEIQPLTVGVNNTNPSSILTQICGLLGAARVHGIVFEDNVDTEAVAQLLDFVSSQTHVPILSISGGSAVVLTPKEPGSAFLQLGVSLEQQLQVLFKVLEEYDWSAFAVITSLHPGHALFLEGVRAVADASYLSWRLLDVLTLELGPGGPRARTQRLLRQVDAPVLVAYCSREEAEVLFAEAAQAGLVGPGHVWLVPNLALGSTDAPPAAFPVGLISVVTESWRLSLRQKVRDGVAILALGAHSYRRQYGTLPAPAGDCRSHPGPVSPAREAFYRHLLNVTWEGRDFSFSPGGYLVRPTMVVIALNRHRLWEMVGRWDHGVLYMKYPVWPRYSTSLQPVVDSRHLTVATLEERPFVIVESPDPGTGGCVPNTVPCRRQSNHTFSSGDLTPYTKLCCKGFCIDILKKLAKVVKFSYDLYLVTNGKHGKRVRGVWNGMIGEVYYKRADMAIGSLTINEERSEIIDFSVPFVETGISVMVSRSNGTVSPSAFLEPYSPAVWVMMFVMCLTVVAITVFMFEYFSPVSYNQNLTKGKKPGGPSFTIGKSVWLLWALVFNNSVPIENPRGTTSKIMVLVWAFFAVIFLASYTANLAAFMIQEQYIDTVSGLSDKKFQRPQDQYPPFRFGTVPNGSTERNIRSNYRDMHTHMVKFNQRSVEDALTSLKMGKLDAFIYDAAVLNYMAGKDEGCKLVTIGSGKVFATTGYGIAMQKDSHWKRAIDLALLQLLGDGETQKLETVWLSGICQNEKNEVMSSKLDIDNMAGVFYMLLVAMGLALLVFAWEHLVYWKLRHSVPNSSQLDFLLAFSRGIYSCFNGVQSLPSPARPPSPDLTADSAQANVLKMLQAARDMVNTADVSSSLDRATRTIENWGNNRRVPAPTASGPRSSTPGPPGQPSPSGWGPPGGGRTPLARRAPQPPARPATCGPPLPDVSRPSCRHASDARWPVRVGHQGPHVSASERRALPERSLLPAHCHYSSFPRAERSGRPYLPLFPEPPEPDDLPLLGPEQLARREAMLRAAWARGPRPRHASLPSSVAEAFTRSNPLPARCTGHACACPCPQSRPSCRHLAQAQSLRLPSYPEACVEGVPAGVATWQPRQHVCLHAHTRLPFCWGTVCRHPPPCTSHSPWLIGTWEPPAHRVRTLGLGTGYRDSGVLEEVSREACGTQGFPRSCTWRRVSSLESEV
Method: (§1) We also evaluated the mechanism of inhibition of GluN1/GluN2C expressed in HEK cells preincubated with glycine for inhibitor 2i (DQP-997-74) by comparing inhibitor potency during the peak and steady-state current responses to glutamate application. […] The deactivation of GluN1/GluN2C receptors (0.53 ± 0.07 s) was slowed by the presence of compound 2i when applied at concentrations of 1 μM (1.3 ± 0.14 s; p = 0.001) and 3 μM (2.3 ± 0.40 s; p < 0.0001) but not at 0.1 μM (0.61 ± 0.07 s; p = 0.965) and 0.3 μM (0.88 ± 0.13 s; p = 0.115; Figure S2).
(§2) HEK293 cells (HEK, ATCC CRL-1573) were plated on glass coverslips pretreated with 0.1 mg/mL poly-D-lysine and cultured in Dulbecco’s modified Eagle medium (DMEM) plus Glutamax (GIBCO 10569-10) supplemented with 10% fetal bovine serum, 10 U/mL of penicillin, and 10 μg/mL of streptomycin at 37 °C and 5% CO2. The cells were transiently transfected with cDNA encoding rat GluN1, GluN2D, and eGFP at a ratio of 1:1:5 by using the calcium phosphate precipitation method.[48] After 24–48 h following the transfection, the cells were perfused with external recording solution that contained (in mM) 3 KCl, 150 NaCl, 0.01 EDTA, 1.0 CaCl2, 10 HEPES, and 22 D-mannitol (the pH was adjusted to 7.4 with NaOH). The patch electrodes (resistance 3–5 MΩ) were prepared from thin-walled glass micropipettes (TW150F-4, World Precision Instruments, Sarasota, FL) by a dual-stage glass micropipette puller (PC-10, Narishige, Tokyo, Japan) and filled with internal solution containing (in mM) 110 D-gluconate, 110 CsOH, 30 CsCl, 5 HEPES, 4 NaCl, 0.5 CaCl2, 2 MgCl2, 5 BAPTA, 2 NaATP, and 0.3 NaGTP. The pH was adjusted to 7.4 with CsOH; osmolality was adjusted to about 300–305 mOsmol/kg. The whole-cell current responses were evoked by application of maximally effectively concentrations of agonists (100 μM glutamate and 30 μM glycine) at a holding potential of −60 mV and recorded using an Axopatch 200B patch-clamp amplifier (Molecular Devices, Union City, CA). A two-barreled theta-glass micropipette was used for rapid solution exchange controlled by a piezoelectric translator (Burleigh Instruments, Newton, NJ). For some experiments, 500 μM NMDA and 250 μM glycine were briefly applied by pressure application from a patch pipette (tip 3–5 MΩ). The current responses were low pass filtered at 2 kHz 8-pole Bessel filter (−3 dB; Frequency Devices) and digitized at 20 kHz using Digidata 1440A acquisition system (Molecular Devices) controlled by Clampex 10.3 (Molecular Devices). All patch experiments were performed at room temperature (23 °C).
(§3) Confidence intervals were determined for the log(IC50). The time course of relaxation during inhibitor application or deactivation following rapid removal of NMDA or glutamate was fitted by the equation [drawing 5] 2 […]
(§4) μM), which is consistent with increased inhibitor potency late in the stimulus train after agonist is bound. […]
(§5) inhibition of recombinant GluN1/GluN2C receptors expressed in HEK cells. GluN1/GluN2C current responses were recorded to glutamate with pre-applied glycine and compound 2i or control (pre-applied glycine and vehicle, 0.1% DMSO; see Figure S2A). The concentration-response curves show peak and steady-state responses normalized to control (Figure S2B). A linear relationship exists between 1/τinhibition and compound 2i concentration from which kON and kOFF can be calculated (see Results, Figure S2C). The deactivation time course following rapid glutamate removal was expanded to show the slowing of receptor deactivation (τdeactivation) by compound 2i (Figure S2D). τdeactivation for individual cells as well as the mean ± SEM are plotted and data were compared by mixed effects model (F (4, 17) = 22.60, p<0.0001; asterisks indicate statistically significant differences, see Results for p -values).
(§6) 2013) and the whole cell current recordings from HEK cells of GluN1/GluN2D responses to glutamate with pre-applied (S)-2a or vehicle (0.1% DMSO). The IC50 for (S)-2a 33 (Figure S3) was 4-fold higher […]

[3] = target: GluN1/GluN2C (Rattus norvegicus, UniProt Q00961); assay: as above; type: cell-based
Sequence of GluN1/GluN2C (Rattus norvegicus, UniProt Q00961) (Q00961 20-1237, other chains not shown): as above
Method: as §1, §2, §3, §4, §5, §6

[4] = HEK293, linear regression of 1/τinhibition vs concentration

O=C(O)CC(F)(F)C(=O)N1N=C(c2c(-c3ccc(Cl)cc3)c3ccccc3[nH]c2=O)CC1c1ccc(Cl)cc1 (stereo not drawn) [2i]
drop of plasma levels at 1 h [1]: ~10 fold
brain calculated concentration, individual (Group 1-3) ([1]; 0.25 h): 17.9 ng/g and 13.1 ng/g
brain calculated concentration, Mean ([1]; 0.25 h (15 min)): 14 ng/g
plasma concentration, individual (Group 1-3) ([1]; 0.25 hr): 585 ng/mL and 766 ng/mL
brain calculated concentration, individual (Group 1-3) ([1]; 1 h): BLQ and 6.18 ng/g
plasma concentration, individual (Group 1-3) ([1]; 1 hr): 41.2 ng/mL and 101 ng/mL and 68.7 ng/mL
brain calculated concentration, individual (Group 1-3) ([1]; 3 h): BLQ
brain levels at 3 h ([1]; 3 h): BLQ
plasma concentration, individual (Group 1-3) ([1]; 3 hr): 5.97 ng/mL and 10.2 ng/mL
concentration at 0.25 h ([1]; brain, 0.25 h (15 min), read-out: brain calculated concentration, Mean): 13.9 ng/g
concentration at 0.25 h ([1]; brain, 0.25 h, read-out: brain calculated concentration, individual (Group 1-3)): 10.8 ng/g
concentration at 1 h ([1]; brain, 1 h, BLQ assumed to be 0.0, read-out: brain calculated concentration, Mean): 4.13 ng/g
concentration at 1 h ([1]; brain, 1 h, read-out: brain calculated concentration, individual (Group 1-3)): 6.21 ng/g
concentration at 0.25 h ([1]; plasma, 0.25 hr (15 min), read-out: plasma concentration, Mean): 642 ng/mL
concentration at 0.25 h ([1]; plasma, 0.25 hr, read-out: plasma concentration, individual (Group 1-3)): 575 ng/mL
concentration at 1 h ([1]; plasma, 1 hr, read-out: plasma concentration, Mean): 70.4 ng/mL
concentration at 3 h ([1]; plasma, 3 hr, read-out: plasma concentration, Mean): 7.64 ng/mL
concentration at 3 h ([1]; plasma, 3 hr, read-out: plasma concentration, individual (Group 1-3)): 6.78 ng/mL
koff [2, 4]: 0.27 s⁻¹
kon [2, 4]: 800000 M⁻¹ s⁻¹
Kd ([2]; from kON and kOFF): 330 nM
IC50 ([2]; read-out: IC50 peak current responses): 5000 nM
IC50 ([2]; read-out: IC50 steady-state responses): 250 nM
deactivation of GluN1/GluN2C receptors ([3]; 0.1 μM compound): 0.61 ± 0.07 s
deactivation of GluN1/GluN2C receptors ([3]; 0.3 μM compound): 0.88 ± 0.13 s
deactivation of GluN1/GluN2C receptors ([3]; 1 μM compound): 1.3 ± 0.14 s
deactivation of GluN1/GluN2C receptors ([3]; 3 μM compound): 2.3 ± 0.40 s
